From patent US11173192B2 (priority 2016, dated 2021)
Where no end group is shown, it is not given here.

Columns and labels:
[1] = molecular target: T1, binding of PCBP2 to ITCH E3 ligase (Homo sapiens, UniProt Q15366); assay: GST precipitation of the PCBP2-ITCH interaction in the presence of EPRS; type: cell-based
T1 construct: FLAG-, Strep-, His-, or GST-tagged full-length and truncated PCBP2 were also prepared; expressed in transfected cells

[2] = molecular target: T2, interaction between PCBP2 and MAVS (Homo sapiens, UniProt Q15366); assay: GST precipitation of the PCBP2-MAVS interaction in 293T cells with various amounts of EPRS; type: cell-based; settings: 293T cells transfected with MAVS and PCBP2, various amounts of EPRS
T2 construct: FLAG-, Strep-, His-, or GST-tagged full-length and truncated PCBP2 were also prepared; expressed in transfected cells; host or cells: 293T
T2 sequence (Q15366 whole entry, the tested form may be a part): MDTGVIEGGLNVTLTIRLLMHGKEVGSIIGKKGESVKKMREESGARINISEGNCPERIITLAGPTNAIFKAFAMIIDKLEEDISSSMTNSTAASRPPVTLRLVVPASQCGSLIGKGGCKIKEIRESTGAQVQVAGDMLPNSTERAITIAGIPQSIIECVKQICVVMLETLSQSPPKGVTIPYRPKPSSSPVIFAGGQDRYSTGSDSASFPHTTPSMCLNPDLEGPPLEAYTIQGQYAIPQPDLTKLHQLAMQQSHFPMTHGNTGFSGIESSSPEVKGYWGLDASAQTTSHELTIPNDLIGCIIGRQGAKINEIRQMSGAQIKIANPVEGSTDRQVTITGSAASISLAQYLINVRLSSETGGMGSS

MAVS [3] = settings: PCBP2-transfected 293T cells, various concentrations of EPRS
Experimental: For immunoblotting analysis, cells were lysed with RIPA buffer (20 mM Tris-HCl, pH 7.4, 150 mM NaCl, 1% NP-40, and 1 mM EDTA) containing a protease inhibitor cocktail and a phosphatase inhibitor cocktail (Roche). Whole cell lysates (50 μg to 100 μg) were subjected to SDS-PAGE, followed by immunoblotting with respective antibodies.

MAVS [4] = settings: 293T cells expressing EPRS, PCBP2, ITCH, Ub; MG-132
VSV = type: cell-based, vesicular stomatitis virus (VSV)
VSV-Indiana = system: VSV-Indiana; parameters: species or system mice; settings: in vivo, iv
[5] = system: VSV-infected RAW264.7 cells; type: cell-based
RAW264.7 cells = assay: MTS cytotoxicity assay, RAW264.7 cells; type: cell-based; settings: various concentrations, 12 hours
Experimental: (§1) HEK293T or RAW264.7 cells were seeded in 96-well plates (10,000 per well) before treatment with Tat-Epep (20-200 μM) for 0-24 hours. Cytotoxicity was determined in a colorimetric assay using MTS [3-(4,5-dimethylthiazole-2-yl)-5-(carboxymethoxyphenyl)-2-(4-sulfophenyl)-2H-tetrazolium salt] (Promega) 20 μL of MTS was added to each well at 37° C. for 1 hour. Optical density at 490 nm was recorded using an automated microplate reader (BioTek). Background absorbance at 630 nm was subtracted from each sample reading.

293T cells = assay: MTS cytotoxicity assay, 293T cells; type: cell-based; settings: 12 or 24 hours
Experimental: as §1

PCBP2 = molecular target: T3, PCBP2 (Homo sapiens, UniProt Q15366); assay: Co-IP of EPRS or its fragments with PCBP2 in 293T cells; type: binding; settings: 293T cells transfected with PCBP2 and EPRS plasmids
T3 construct: FLAG-, Strep-, His-, or GST-tagged full-length and truncated PCBP2 were also prepared; expressed in transfected cells; host or cells: 293T
T3 sequence (Q15366 whole entry, species assumed, the tested form may be a part): as the sequence (Q15366 whole entry, the tested form may be a part) above
Experimental: For immunoprecipitation, cell lysates were pre-cleared by incubation with protein A beads for 1 hour at 4° C. The pre-cleared cell lysates were incubated overnight at 4° C. with the respective antibodies, followed by incubation with 30 μL of protein A/G PLUS-agarose beads for 3 to 4 hours at 4° C. The immunoprecipitates were then collected and washed five times with a lysis buffer before immunoblotting analysis.

PCBP2 KH1 (aa 11-82) = PCBP2 KH1 (aa 11-82) (Homo sapiens, UniProt Q15366); assay: In vitro pull-down of purified EPRS domains with PCBP2 KH1; settings: purified His-tagged EPRS domains, GST-fused PCBP2 KH1
Sequence of PCBP2 KH1 (aa 11-82) (Q15366 11-82): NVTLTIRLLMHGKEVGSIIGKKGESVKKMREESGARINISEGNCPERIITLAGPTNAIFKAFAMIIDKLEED

T1 sequence (Q15366 whole entry, the tested form may be a part): as the sequence (Q15366 whole entry, the tested form may be a part) above
T1 sequence (Q96J02 whole entry partner, the tested form may be a part): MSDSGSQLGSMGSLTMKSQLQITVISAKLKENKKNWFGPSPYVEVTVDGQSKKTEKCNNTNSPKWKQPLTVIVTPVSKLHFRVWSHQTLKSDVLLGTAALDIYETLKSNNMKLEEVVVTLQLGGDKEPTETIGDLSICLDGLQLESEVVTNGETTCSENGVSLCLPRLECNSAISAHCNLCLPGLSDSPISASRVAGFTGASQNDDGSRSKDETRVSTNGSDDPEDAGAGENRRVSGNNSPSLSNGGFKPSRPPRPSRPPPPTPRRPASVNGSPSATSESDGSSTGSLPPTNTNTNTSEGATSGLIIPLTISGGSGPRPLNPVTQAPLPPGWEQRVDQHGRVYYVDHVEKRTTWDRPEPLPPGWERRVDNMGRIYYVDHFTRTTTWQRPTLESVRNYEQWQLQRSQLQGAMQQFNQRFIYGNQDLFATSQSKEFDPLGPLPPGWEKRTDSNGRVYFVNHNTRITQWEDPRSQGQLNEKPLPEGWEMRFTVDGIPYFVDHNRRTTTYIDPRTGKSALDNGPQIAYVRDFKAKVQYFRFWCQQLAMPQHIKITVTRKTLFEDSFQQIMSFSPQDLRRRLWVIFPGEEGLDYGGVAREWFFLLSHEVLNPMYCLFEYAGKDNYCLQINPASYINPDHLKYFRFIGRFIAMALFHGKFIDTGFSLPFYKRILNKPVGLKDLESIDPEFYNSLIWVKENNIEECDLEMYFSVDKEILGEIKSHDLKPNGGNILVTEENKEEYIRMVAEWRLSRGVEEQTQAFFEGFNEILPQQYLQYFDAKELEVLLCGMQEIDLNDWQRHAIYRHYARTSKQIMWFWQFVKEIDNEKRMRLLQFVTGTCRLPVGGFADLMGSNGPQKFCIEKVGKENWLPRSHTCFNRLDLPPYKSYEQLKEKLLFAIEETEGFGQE

In the case of “EPRS: glutamyl-prolyl-tRNA synthetase protein, 1512 aa, SEQ ID NO: 63; expressed from plasmid or purified”, the “binding of PCBP2 to ITCH E3 ligase” value [1] is reported as “did not disrupt the binding of PCBP2 to ITCH E3 ligase”, the “interaction between PCBP2 and MAVS” value [2] is reported as “significantly reduced” and the “PCBP2-induced degradation of endogenous MAVS” value (MAVS [3]) is reported as “rescued from this degradation”. For the same molecule, the “PCBP2-induced degradation of exogenous MAVS” value (MAVS [3]) was “rescued from this degradation”, the “PCBP2-mediated ubiquitination of exogenous MAVS-FLAG” value (MAVS [4]) was “inhibited PCBP2-mediated ubiquitination of MAVS in a dose-dependent manner” and the “endogenous ubiquitination of MAVS” value (MAVS [4]) was “significantly attenuated in the presence of EPRS”.

In the case of “YGRKKRRQRRR-GG-KWDVSTTKARVAPEKKQDVGK (YGRKKRRQRRRGGKWDVSTTKARVAPEKKQDVGK; New Tat-Epep)”, the “viral replication (fluorescence images)” value (VSV) is reported as “stronger inhibitory effect”, the “VSV viral titers in mouse brains” value (VSV-Indiana) is reported as “decrease VSV viral titers in the mouse brains” and the “increase in IFN-β secretion as compared with Tat-Epep” value [5] is reported as 2- to 3 fold. The “increase in IL-6 secretion as compared with Tat-Epep” value [5] was 2- to 3 fold.

With “YGRKKRRQRRRGGDVSTTKARVAPEKKQDVGKFVELPGAEMG [Tat-Epep]” the “viability of RAW264.7 cells” value (RAW264.7 cells) was “no effect on the viability” and the “viability of 293T cells” value (293T cells) was “no effect on the viability”.

B1: EPRS (aa 1-196): N-terminal EPRS fragment containing GST-like domain and linker region L1 (protein)
chain: MATLSLTVNSGDPPLGALLAVEHVKDDVSISVEEGKENILHVSENVIFTDVNSILRYLARVATTAGLYGSNLMEHTEIDHWLEFSATKLSSCDSFTSTINELNHCLSLRTYLVGNSLSLADLCVWATLKGNAAWQEQLKQKKAPVHVKRWFGFLEAQQAFQSVGTKWDVSTTKARVAPEKKQDVGKFVELPGAEMG
With B1 the “interaction with PCBP2 (co-IP)” value (PCBP2) was “crucial for the interaction with PCBP2” and the “direct interaction with PCBP2 KH1 (in vitro precipitation)” value (PCBP2 KH1 (aa 11-82)) was “specifically interacted”.
